{
  "source": "patent US9873705B2",
  "about": "“Vinylogous thioester compounds and methods of use” (THE TRUSTEES OF DARTMOUTH COLLEGE, priority 2015, dated 2018)",
  "key": {"[1]": {"tested_on": "p62 and LC3B protein expression in U87-MG cells", "assay": "Western blot of autophagy markers p62 and LC3B", "assay_type": "cell-based, human", "source_text": "Ras dysregulated tumors depend on autophagy to remove damaged mitochondria and allow for their survival. […] LC3B I is lipidated to form LC3B II following induction of autophagy. LC3B II is recruited and subsequently integrated into the autophagosome. p62 functions as an adaptor protein in autophagy by binding to both ubiquitin-labeled damaged cargo such as protein aggregates or mitochondria and LC3B II to facilitate cargo uptake into the autophagosome. Degradation of the cargo occurs when the autophagosome fuses with the lysosome; when autophagy is inhibited with hydroxychloroquine (HCQ), a drug that prevents acidification of the lysosome, both LC3B II and p62 accumulate as derogation of the autophagosome is prevented, making them valuable markers of autophagic flux.\nThe data for FIG. 4 was obtained as follows: U87-MG cells were plated in 6-well plates at a concentration of 500,000 cells/well and allowed to adhere overnight. Cells were treated for 12 h with either DMSO or 2 μM Y102, followed by an additional 12 h co-treatment with or without 50 μM HCQ. Following treatment, cells were harvested using 0.25% trypsin, rinsed with PBS, and lysed with 75 μL modified RIPA buffer (50 mM NaCl, 1% v/v nonidet P40, 0.5% w/v sodium deoxycholate, 0.05% w/v sodium dodecyl sulfate, 50 mM Tris pH 8.0) containing 1 mM NaVO4, 1 mM NaF, 1 mM phenylmethylsulfonyl fluoride, 0.1 μg/mL leupeptin, 100 μM benzamidine HCl, 1 μM aprotinin, 0.1 μg/mL soybean trypsin inhibitor, 0.1 μg/mL pepstatin, and 0.1 μg/mL antipain. Protein was quantified using a BCA assay kit (Pierce). 40 μg of protein prepared in 1× Laemmli sample buffer (50 mM Tris pH 6.8, 0.02% w/v bromophenol blue, 2% w/v sodium dodecyl sulfate, 10% v/v glycerol, 1% v/v beta-mercaptoethanol, 12.5 mM EDTA) was separated on a 4-15% polyacrylamide gel using sodium dodecyl sulfate-polyacrylamide gel electrophoresis. Protein was transferred to nitrocellulose membrane, blocked in 5% nonfat milk in TBST, and probed with primary antibodies anti-LC3BI/II (Cell Signaling, 1:1000, overnight at 4° C.), anti-p62/SQSTM-1 D-3 (Santa Cruz, 1:1000, 1 h at room temperature), or anti-α-tubulin B-1-2-5 (Santa Cruz, 1:10000, 1 h at room temperature) in 2% nonfat milk in TBST. Blots were incubated in 1:20,000 anti-rabbit HRP or 1:10,000 anti-mouse HRP secondary antibodies diluted in 2% nonfat milk in TBST for 1 h at room temperature. Film was exposed to standard ECL (Pierce)-coated blots and developed using a standard film processor."}, "U87-MG cells": {"tested_on": "U87-MG cells", "assay": "U87-MG cell viability, alamarBlue, washout", "assay_type": "cell-based, human", "details": "2 hour treatment then washout compared to 72 hour treatment; 0 to 20 μM", "experimental": "Growth inhibition assays as described above were performed on ira2Δ yeast cells and NF1-deficient glioblastoma cells. Log-phase yeast were grown at 30° C. starting at an OD600 of 0.05 in 96-well plates with Y102 at concentrations ranging from 0 to 100 μM. Following 18 h treatment, OD600 was measured using a THERMOmax (Molecular Devices) microplate reader and SOFTmax Pro 4.3 LS software. Results were plotted as a percentage compared to DMSO control using GraphPad Prism software. Graph represents an average of three experiments with four technical replicates per experiment (FIG. 2A). In a similar experiment U87-MG cells were plated at a concentration of 5,000 cells/well into 96-well plates and allowed to adhere overnight. The following day, cells were treated with Y102 at concentrations ranging from 0 to 20 μM for up to 72 h. For treatments less than 72 h, treatment media was removed at the indicated time points and replaced with normal growth medium. Three hours prior to collection, alamarBlue (Thermo Scientific) was added to a final concentration of 5% v/v. AlamarBlue fluorescence was determined with a Spectramax M2 (Molecular Devices) plate reader at an excitation of 544 nm and an emission of 590 nm using SoftMax Pro 3 software. Results were plotted as a percentage compared to DMSO control using GraphPad Prism software (FIG. 2B). […]"}, "[2]": {"tested_on": "BNIP3L/Nix in NF1+/+ and NF1−/− IMEC CRISPR cells", "assay": "BNIP3L/Nix immunofluorescence", "assay_type": "cell-based", "details": "1 μM, 24 h, NF1−/− vs NF1+/+ IMEC CRISPR cells, vs DMSO", "source_text": "Mitochondria can also be removed via non-selective autophagy (21). To distinguish between inhibition of mitophagy and not non-selective autophagy, expression and localization of one mitophagy-specific receptors involved in […] mitophagy, BNIP3L/Nix, was examined via immunofluorescence (25) (FIG. 10). BNIP3 and its homologue BNIP3L/NIX are involved in hypoxia-induced mitophagy and are transcriptionally regulated through HIF in human cancers (27). BNIP3-mediated mitophagy is also reported to occur following perinuclear clustering and fragmentation of the mitochondria (28,29). Under hypoxic conditions, both BNIP3 and FUNDC1 are reported to localize to the outer mitochondrial membrane (30). Therefore, if mitophagy is inhibited with Y102 under hypoxic conditions, BNIP3, NIX/BNIP3L, and/or FUNDC1 should accumulate if Y102 inhibits […] mitophagy following receptor localization.\nCRISPR technology was used to introduce mutated NF1 into mammalian IMEC cells in order to generate an isogenic system for the testing of compounds that mimics the yeast isogenic system used in the original screens.\nThe data for FIG. 10 was obtained as follows: NF1+/+ and NF1−/− IMEC CRISPR cells were plated on poly-L-lysine (Sigma) coated coverslips at a concentration of 50,000 cells/well in a 24-well plate and allowed to adhere overnight. […]"}},
  "note": "“Also recorded” adds a separate entry of the source.",
  "data": [
    {"smiles": "Cn1cnnc1S/C=C/C(=O)c1ccc(F)cc1", "note": "[Y102]", "values": [
      {"measurement": "LC3B I/II conversion (LC3B II accumulation)", "setting": "[1]; 12 hours Y102 followed by 12 hours HCQ co-treatment", "result": "LC3B II accumulation occurred, but not as robustly as with HCQ alone; also recorded: LC3B I/II conversion was seen"},
      {"measurement": "p62 accumulation (autophagy marker)", "setting": "[1]; U87-MG, Western blot, 24 hours, 2 μM Y102, 50 μM HCQ", "result": "accumulation of the autophagy marker p62"},
      {"measurement": "LC3B I/II conversion (LC3B II accumulation)", "setting": "[1]; U87-MG, Western blot, single agent, 2 μM Y102, 50 μM HCQ", "result": "not found to accumulate; also recorded: not LC3B I/II conversion"},
      {"measurement": "reversibility of effect on U87-MG cell viability", "setting": "U87-MG cells", "result": "irreversible"},
      {"measurement": "BNIP3L/Nix accumulation (mitophagy receptor)", "setting": "[2]", "result": "perinuclear clustering of the mitophagy receptor BNIP3L/NIX was observed; also recorded: accumulated with Y102 treatment moreso in NF1−/− cells than in NF1+/+ cells"}
    ]}
  ]
}
